Measurements reported in patent publication US20060093580A1, “Tolerogenic vaccine and method” (priority 2004, published 2006).
“And” between values parts separate entries of the source, which are not always exact repeats. Identical values can stand only once. “Also recorded” adds a separate entry of the source. Like-named read-outs stand apart in the source and are kept apart here.

Key:
CD4^+CD25^− T cells [1] = experiment: CD25 expression by flow cytometry after anti-CD3 stimulation; format: cell-based, mouse; settings: anti-CD3 + APCs, 16 hours
Experimental: (§1) After 16 hours of stimulation, expression of CD25 was analyzed by flow cytometry. Dotted lines represent the staining level of unstimulated cells.

CD4 Foxp3^+ cells = experiment: Foxp3 and CTLA-4 flow cytometry of CD4 T cells expanded with alcohol; format: cell-based, mouse
Experimental: (B) Foxp3 and CTLA4 levels were determined by flow cytometry analysis of CD4^med, CD4^t-but or CD4^1-but cells at day 1 (upper panels) and day 8 (lower panels).
After 3 days of culture with alcohol, cells were expanded in the medium free of alcohol but containing IL-2 for 4 days and analyzed by flow cytometry with Foxp3 and CTLA-4.

[2] = system: splenic CD4 and CD8 T cells; experiment: CFSE cell division of anti-CD3-stimulated splenic T cells; format: cell-based, mouse; settings: 0.3% alcohol, anti-CD3 + irradiated APCs, 72 hours
Experimental: (§2) For determination of cell division, T cells were labeled with 1 μM CFSE (Molecular Probes, Eugene, Oreg.) for 15 minutes at 37° C. CFSE-labeled T cells (5×10^5 cells/ml) were cultured with 0.2 μg/ml of anti-CD3 with APCs (T cell-depleted splenocytes, γ-irradiated with 2000 rads, 8×10^5 cells/ml). […] After 72 hours, cells were harvested and stained with antibody against CD4 and CD8. The number of cell divisions was determined by flow cytometry. Exogenous IL-2 was added at 50 units/ml where indicated. For the proliferation assay, ^3H-thymidine (0.5 μCi/well) was added for the last 6 hours of culture. Cytokine assays were performed by enzyme-linked immunoassays as previously described (Singh, N. et al. (1999), J. Immunol. 163:2373-2377).

CD4^+CD25^− T cells [3] = experiment: 3H-thymidine proliferation after anti-CD3 stimulation with or without exogenous IL-2; format: cell-based, mouse; settings: 0.3%
Experimental: (§3) (B) 1-butanol effect on the proliferative response of CD4^+CD25^− and CD4^+CD25^+ T cells to anti-CD3 or anti-CD3^+ exogenous IL-2. […] Proliferation of cells was measured as in FIG. 1B.
(§4) (D) CD4^+CD25^− and CD4^+CD25^+ T cells (2×10^4 cells/well) were stimulated by anti-CD3 in the absence (left panel) or presence (right panel) of exogenous IL-2. […] [3H]-thymidine uptake was measured 72 hours later.
as §2
We also examined the effect of 1-alcohol on the proliferation of CD4^+CD25^− and CD4^+CD25^+ cells. CD4^+CD25^− and CD4^+CD25^+ cells were isolated from splenocytes using a MoFlo cell sorter. Each cell type was stimulated with anti-CD3 antibody in the presence of irradiated APCs with or without the addition of exogenous IL-2. Proliferation was measured by ^3H-thymidine incorporation on day 3.

splenic CD4^+ T cells = experiment: Anti-CD3-induced elevation of intracellular Ca2+ (Fura2-AM); format: cell-based, mouse; settings: added together with stimulating antibody
Experimental: (C) 1-butanol effect on anti-CD3-induced elevation of intracellular Ca2^+. CD4 T cells were labeled with Fura2-AM and activated with biotin conjugated anti-CD3 and streptavidin. […] Levels of Ca2^+ were determined by the ratio of fluorescence at 340/380 nm.
To further elucidate the role of PLD in T cell activation, TCR proximal signaling events were examined. First, the effect of 1-butanol on the elevation of intracellular Ca^2+ was determined. […] Elevation of intracellular Ca^2+ is required for activation of transcription factors, such as NF-AT, which are essential for CD25 and IL-2 expression (Crabtree, G. R. and Olson, E. N. (2002), Cell 109(Suppl):867-879; Hogan, P. G. et al. (Sep. 15, […]), Genes Dev. 17:2205-[…]).

ERK = experiment: Anti-CD3-induced ERK activation (phospho-ERK staining); format: cell-based, mouse; settings: anti-CD3 + APCs, 3 hours
Experimental: (D) Effect of 1-butanol on antl-CD3-induced ERK activation. CD4 T cells were stimulated with anti-CD3 and APCs for 3 hours and stained with antibody against phospho-ERK. […] Thick lines show the data from stimulated cells and thin lines show data from unstimulated cells.
TCR stimulation also induces activation of the Ras/ERK pathway, and sustained ERK activation is essential for IL-2 production (Iwashima, M. (May, 2003), Immunol. Review 192; T. Koike et al., J. Biol. Chem. 278:15685-15692).

CD4^+CD25^+ T cells [4] = settings: 0.3%, activation by anti-CD3 and IL-2
Experimental: as §3, §4, §2
We also examined the effect of 1-alcohol on the proliferation of CD4^+CD25^− and CD4^+CD25^+ cells. CD4^+CD25^− and CD4^+CD25^+ cells were isolated from splenocytes using a MoFlo cell sorter. […] Proliferation was measured by ^3H-thymidine incorporation on day 3.

CD4^+CD25^− T cells [5] = experiment: In vitro suppression assay; format: cell-based, mouse; settings: 1-butanol and anti-CD3 treatment
Experimental: CD4^+CD25^− T cells (2.5×10^4 cells) were cultured with graded doses of CD4^med cells (open circles), CD4^t-but cells (open squares) or CD4^1-but cells (closed squares) for 72 hours with anti-CD3 antibody and APCs. Proliferation of cells was measured as in (B).
Cells were cultured as in (C) using equal numbers of CD4^+CD25^− cells and CD4^med cells, CD4^1-but cells, or CD4^t-but cells. Production of IL-2 after 24 hours of co-culture was measured.
(H) Effect of CD4^med, CD4^t-but, and CD4^1-but cells on cytokine production by CD4^+25^− T cells. CD4^+25^− T cells were stimulated and co-cultured with CD4^med cells (med), CD4^t-but cells (t-but), or CD4^1-but cells (1-but) as described in FIG. 1D. IL-4 and IFN-γ in the culture supernatants were measured by ELISA.
Suppression of freshly isolated CD4^+CD25^− cells was measured as in FIG. 1C.
Suppressive effects were measured by ^3H-thymidine incorporation or by cytokine production.

CD4^+CD25^+ T cells [6] = system: CD4^+CD25^+ T cells
Experimental: as §1

CD4^+CD25^− T cells [7] = system: CD4^+CD25^− T cells
Experimental: (I) Cytokine production by 1-but and t-but-treated CD4^+25^− and CD4^+25^+ T cells. CD4^+25^− and CD4^+25^+ T cells were stimulated as described in FIG. 3A. The same supernatants were used to measure the amount of IL-4 (left panel) and IFN-γ (right panel). Closed bars show medium-treated T cells, gray bars show t-but- treated T cells, and open bars show 1-but-treated T cells.
(A) Effect of 1-butanol on anti-CD3-induced IL-2 production. […] IL-2 production was determined by ELISA of culture supernatants obtained after 24 hours of stimulation.
as §2

PLD [8] = experiment: TCR-induced PLD activity (3H-oleate labelling, PA and Pet by TLC); format: cell-based, mouse; settings: 100 μM, plate-bound anti-CD3 40 minutes, 0.5% ethanol, primary T cells
Description: FIG. 5 Effect of adenosine on TCR-induced PLD activation. (A) Phosphatidic acid production by primary CD4 T cells stimulated with anti-CD3 antibodies in the presence of ethanol (open bar) and adenosine (closed bar) compared with unstimulated T cells. (B) Phosphatidylethanol (Pet) production by primary CD4 Mouse CD4 T cells stimulated with anti-CD3 antibodies in the presence of ethanol (open bar) and adenosine (closed bar) compared with unstimulated T cells.
Mouse CD4 T cells were labeled with ^3H-oleate to measure PLD activity (Zheng, et al. (2003), Biochim. Biophys. Acta. 1643(1-3):25-36). Cells were then washed and activated by plate-bound anti-CD3 for 40 minutes in the presence of 0.5% of ethanol (open bar). Effect of adenosine was examined using the medium containing 100 μM of adenosine (closed bar). Cells were harvested and lipid extracts of cells were separated on TLC plates and bands corresponding to phosphatidic acid (PA) (FIG. 5A) and phosphatidylethanol (Pet) (FIG. 5B) were excised and counted by liquid scintillation.

PLD [9] = settings: Thibault 2000; Grenier 2003; cited from earlier work
[10] = anti-CD3 + APCs, 3H-thymidine at 72 hours

## CC(C)(C)O [t-butanol, Tert-butanol]
CD4^+CD25^− T cells [1]
  expression of CD25 by CD4^+CD25^− T cells: did not elicit a significant effect
CD4^+ T cells; 0.3% alcohol, anti-CD3 + APCs + IL-2, day 7, mean +/− standard deviation, experiments 1-3
  Numbers of live cells obtained from 1 × 10^6 CD4^+ T cells: 18.5 ± 2.1 ×10^6 and 13 ± 2 ×10^6 and 14 ± 2 ×10^6
CD4 Foxp3^+ cells; 3 days with 0.3% alcohol, then 4 days IL-2 without alcohol
  cells expressing Foxp3 and CTLA-4 (in words): almost no cells
[2]
  anti-CD3 induced cell division: no significant effect
CD4^+CD25^− T cells [3]; [10]
  effect on proliferation of CD4^+CD25^− cells: no significant effect
Splenic CD4^+ T cells
  anti-CD3-induced elevation of intracellular Ca^2+: No significant effect
ERK
  CD3-induced elevation of phosphorylated ERK: no detectable effect

## CCCCO [1-butanol]
CD4^+CD25^− T cells [1]
  expression of CD25 by CD4^+CD25^− T cells: blocked the expression
CD4^+CD25^+ T cells [4]
  effect on proliferation of CD4^+CD25^+ T cells: no effect
CD4^+CD25^− T cells [5]
  suppressive activity of population expanded from total CD4^+ T cells: strong suppressive activity
  suppressive function of population expanded from CD4^+ T cells with CD25^+ cells removed: no suppressive function
CD4^+ T cells
  Numbers of live cells obtained from 1 × 10^6 CD4^+ T cells: 3.1 ± 0.3 ×10^6 and 2.5 ± 0.5 ×10^6 and 3.4 ± 0.5 ×10^6
  cells recovered from 1×10^6 CD4^+CD25^− cells: 5×10^5 cells
  cells recovered from 1×10^6 total CD4^+ cells: 3.6×10^6 cells
  decrease in final yield on removal of CD25^+ T cells prior to treatment: 80%
  viability or surface antigen expression after pre-incubation: no difference
CD4 Foxp3^+ cells; in one week
  expansion of Foxp3^+ cells (total cell number): more than 10 fold
[2]
  anti-CD3 induced cell division: abrogated cell division
CD4^+CD25^− T cells [3]; [10]
  reduction of proliferation of CD4^+CD25^− cells: 80%
CD4^+CD25^− T cells [3]; anti-CD3 + exogenous IL-2
  proliferation of treated CD4^+CD25^− cells on addition of exogenous IL-2: did not restore proliferation; also recorded: did not rescue the proliferation
CD4^+CD25^+ T cells [6]; anti-CD3 + APCs, 16 hours
  up-regulation of CD25 expression in CD4^+CD25^+ T cells: not affected
CD4^+CD25^+ T cells [6]; not shown
  expression of CD69 by CD4^+CD25^+ T cells: did not impair
Splenic CD4^+ T cells
  anti-CD3-induced elevation of intracellular Ca^2+: substantially impaired
CD4^+CD25^− T cells [7]; anti-CD3, 24 hours, ELISA
  production of IL-2 by CD4^+CD25^− T cells: blocked production
CD4^+CD25^− T cells [7]; anti-CD3, ELISA
  IFN-γ production: abrogated
  IL-4 production: abrogated
ERK
  CD3-induced elevation of phosphorylated ERK: abolished

## Nc1ncnc2c1ncn2[C@@H]1O[C@H](CO)[C@@H](O)[C@H]1O [adenosine]
PLD [8]
  PLD activity induced by TCR stimulation: completely abrogated
PLD [9]
  PLD activation in neutrophils: inhibit PLD activation
